Article PMC10115808, “Parahydrogen-induced polarization allows 2000-fold signal enhancement in biologically active derivatives of the peptide-based drug octreotide” (Scientific Reports, 2023)
Entries after “also recorded” stand apart in the source; their conditions may differ.

Key:
HEK293 cells = test: Cell binding assay of TAMRA-conjugated octreotide variants on HEK293 cells (flow cytometry); parameters: species or system human; conditions: neat TAMRA versus fluorescence marked octreotide 1, Fig. S-24
Protocol: (§1) In order to check whether the modifications on the octreotide have an influence on its interaction with somatostatin receptors in living cells, a binding study on different human cell lines was performed. For the detection of the bound peptides, octreotide and the derivatives were further modified by attaching the fluorophore TAMRA to the N terminus. To prevent the fluorophore from interacting with the binding site of octreotide derivatives, a 4,7,10-trioxa-1,13-tridecanediamine succinate (TTDS) spacer was added between the peptide N terminus and the N-hydroxy succinimide (NHS)-activated fluorophore. Both, the linker and the fluorophore, were attached to the peptides by manual SPPS (Fig. 5).
(§2) Human lung cancer cells A549 and human embryonic kidney cells HEK293 were utilized for the binding studies. A549 are widely used in binding studies with somatostatin analogues[61],[62]. […]
(§3) A549 cells (DSMZ ACC 107) and HEK293 cell s (DSMZ ACC 308) were cultured in complete growth medium consisting of Dulbecco’s MEM with 10 % fetal bovine serum (FBS) and 1x penicillin/streptomycin. […] After incubation, the cells were washed three times with ice -cold PBS-F. Using a CytoFlexS flow cytometer, PE -fluorescence was measured. […]

A549 cells = test: Cell binding assay of TAMRA-conjugated octreotide variants on A549 cells (flow cytometry); parameters: species or system human; conditions: neat TAMRA versus fluorescence marked octreotide 1, Fig. S-23
Protocol: as §1, §2, §3

TAMRA
Binding efficiency (fluorescence) of TAMRA alone compared to TAMRA-linker-octreotide (HEK293 cells): about half the fluorescence; also recorded: about two times reduced binding efficiency
Binding efficiency (fluorescence) of TAMRA alone compared to TAMRA-linker-octreotide (A549 cells): about half the fluorescence; also recorded: about two times reduced binding efficiency
